Earlier results as cited in PubChem BioAssay AID1259409 (Chemical Carcinogenesis Research Information System (CCRIS), 2018).

System: rodent chemically induced tumor inhibition, incidence and multiplicity
Test: CCRIS tumor inhibitor studies

CC[C@H](CC[C@@H](C)[C@H]1CC[C@H]2[C@@H]3CC=C4C[C@@H](O)CC[C@]4(C)[C@H]3CC[C@]12C)C(C)C
tumour outcome (control, treated, inhibition, significance) (Carcinogen: 7,12-DIMETHYLBENZ[A]ANTHRACENE, 57-97-6, Dose [Inhibitor]: 0, 5 UMOL 2/WK BEGINNING 1 WK POST CARCINOGEN TREATMENT AND CONTINUING FOR 18 WK (STUDY DURATION: 19 WK), Route [Inhibitor]: DERMAL, Species: MOUSE, Strain/Sex: ICR/FEMALE, Target Tissue: Type of Lesion: SKIN: PAPILLOMA, Dose [Carcinogen]: 50 UG ONCE, Promoter: 12-O-TETRADECANOYLPHORBOL-13-ACETATE, 16561-29-8): 100%, 80%, 20%, not calculated
tumour outcome (control, treated, inhibition, significance) (Carcinogen: AZOXYMETHANE, 25843-45-2, Dose [Inhibitor]: 2 G/KG DIET DAILY FOR 26 WK STARTING SIMULTANEOUSLY WITH CARCINOGEN TREATMENT (STUDY DURATION: 26 WK), Route [Inhibitor]: ORAL, Species: RAT, Strain/Sex: SPRAGUE-DAWLEY/MALE, Target Tissue: Type of Lesion: LARGE INTESTINE: MALIGNANT TUMOR, Dose [Carcinogen]: 8 MG/KG BW INJECTED 1/WK FOR 8 WK, Promoter: NONE USED): 90%, 93%, -3%, not significant
tumour outcome (control, treated, inhibition, significance) (Carcinogen: AZOXYMETHANE, 25843-45-2, Dose [Inhibitor]: 2 G/KG DIET DAILY FOR 26 WK STARTING SIMULTANEOUSLY WITH CARCINOGEN TREATMENT (STUDY DURATION: 26 WK), Route [Inhibitor]: ORAL, Species: RAT, Strain/Sex: SPRAGUE-DAWLEY/MALE, Target Tissue: Type of Lesion: SMALL INTESTINE: MALIGNANT TUMOR, Dose [Carcinogen]: 8 MG/KG BW INJECTED 1/WK FOR 8 WK, Promoter: NONE USED): 90%, 96%, -7%, not significant
tumour outcome (control, treated, inhibition, significance) (Carcinogen: AZOXYMETHANE, 25843-45-2, Dose [Inhibitor]: 2 G/KG DIET DAILY STARTING SIMULTANEOUSLY WITH CARCINOGEN TREATMENT AND CONTINUING THROUGH END OF STUDY (STUDY DURATION:, Route [Inhibitor]: ORAL, Species: RAT, Strain/Sex: SPRAGUE-DAWLEY/MALE, Target Tissue: Type of Lesion: LARGE INTESTINE: MALIGNANT TUMOR, Dose [Carcinogen]: 8 MG/KG BW 1/WK FOR 8 WK, Promoter: NONE USED): 90%, 93%, -3%, not significant
tumour outcome (control, treated, inhibition, significance) (Carcinogen: AZOXYMETHANE, 25843-45-2, Dose [Inhibitor]: 2 G/KG DIET DAILY STARTING SIMULTANEOUSLY WITH CARCINOGEN TREATMENT AND CONTINUING THROUGH END OF STUDY (STUDY DURATION:, Route [Inhibitor]: ORAL, Species: RAT, Strain/Sex: SPRAGUE-DAWLEY/MALE, Target Tissue: Type of Lesion: SMALL INTESTINE: MALIGNANT TUMOR, Dose [Carcinogen]: 8 MG/KG BW 1/WK FOR 8 WK, Promoter: NONE USED): 90%, 96%, -7%, not significant
tumour outcome (control, treated, inhibition, significance) (Carcinogen: N-METHYL-N-NITROSOUREA, 684-93-5, Dose [Inhibitor]: 0.2% IN DIET DAILY FOR 28 WK STARTING SIMULTANEOUSLY WITH CARCINOGEN TREATMENT AND CONTINUING FOR DURATION OF STUDY (STU, Route [Inhibitor]: ORAL, Species: RAT, Strain/Sex: FISCHER CD/MALE, Target Tissue: Type of Lesion: COLON: ADENOMA, Dose [Carcinogen]: 2 MG IN 0.5 ML OF 0.9% NACL SOLUTION 1/3 D FOR 10 D, Promoter: NONE USED): 38/71 (54%), 16/48 (33%), 39%, p<0.05

CCC(=O)O[C@H]1CC[C@H]2[C@@H]3CCC4=CC(=O)CC[C@]4(C)[C@H]3CC[C@]12C
tumour outcome (control, treated, inhibition, significance) (Carcinogen: CADMIUM CHLORIDE, 10108-64-2, Dose [Inhibitor]: APPROXIMATELY NORMAL CIRCULATING LEVELS OF TESTOSTERONE BEGINNING 2 WK PRIOR TO CARCINOGEN TREATMENT, IMPLANTS REPLACED, Route [Inhibitor]: SUBCUTANEOUS IMPLANT, Species: RAT, Strain/Sex: F344/MALE, Target Tissue: Type of Lesion: HEMATOPOIETIC SYSTEM: LEUKEMIA, Dose [Carcinogen]: 20 UMOL 1/WK FOR 5 WK, Promoter: NONE USED): 9/40 (23%), 10/37 (27%), -17%, not significant
tumour outcome (control, treated, inhibition, significance) (Carcinogen: CADMIUM CHLORIDE, 10108-64-2, Dose [Inhibitor]: APPROXIMATELY NORMAL CIRCULATING LEVELS OF TESTOSTERONE BEGINNING 2 WK PRIOR TO CARCINOGEN TREATMENT, IMPLANTS REPLACED, Route [Inhibitor]: SUBCUTANEOUS IMPLANT, Species: RAT, Strain/Sex: F344/MALE, Target Tissue: Type of Lesion: INJECTION SITE: SARCOMA, Dose [Carcinogen]: 20 UMOL 1/WK FOR 5 WK, Promoter: NONE USED): 28/40 (70%), 22/37 (59%), 16%, not significant
tumour outcome (control, treated, inhibition, significance) (Carcinogen: CADMIUM CHLORIDE, 10108-64-2, Dose [Inhibitor]: APPROXIMATELY NORMAL CIRCULATING LEVELS OF TESTOSTERONE BEGINNING 2 WK PRIOR TO CARCINOGEN TREATMENT, IMPLANTS REPLACED, Route [Inhibitor]: SUBCUTANEOUS IMPLANT, Species: RAT, Strain/Sex: F344/MALE, Target Tissue: Type of Lesion: TESTES: TUMOR, Dose [Carcinogen]: 20 UMOL 1/WK FOR 5 WK, Promoter: NONE USED): 34/40 (85%), 0/37 (0%), 100%, p<0.05
tumour outcome (control, treated, inhibition, significance) (Carcinogen: N-NITROSOBIS(2-OXOPROPYL)AMINE, 60599-38-4, Dose [Inhibitor]: 0, 40 MG PELLET INSERTED IN THE INTERSCAPULAR REGION AND REPLACED EVERY 6 WK FOR LIFE BEGINNING POST LAST CARCINOGEN DOS, Route [Inhibitor]: SUBCUTANEOUS, Species: RAT, Strain/Sex: MRC/MALE, Target Tissue: Type of Lesion: COLON: TUMOR, Dose [Carcinogen]: 10 MG/KG 1/WK FOR 20 WK, Promoter: NONE USED): 2/26 (8%), 1/24 (4%), 50%, not calculated
tumour outcome (control, treated, inhibition, significance) (Carcinogen: N-NITROSOBIS(2-OXOPROPYL)AMINE, 60599-38-4, Dose [Inhibitor]: 0, 40 MG PELLET INSERTED IN THE INTERSCAPULAR REGION AND REPLACED EVERY 6 WK FOR LIFE BEGINNING POST LAST CARCINOGEN DOS, Route [Inhibitor]: SUBCUTANEOUS, Species: RAT, Strain/Sex: MRC/MALE, Target Tissue: Type of Lesion: RECTUM: TUMOR, Dose [Carcinogen]: 10 MG/KG 1/WK FOR 20 WK, Promoter: NONE USED): 9/26 (35%), 14/24 (58%), -66%, not calculated
tumour outcome (control, treated, inhibition, significance) (Carcinogen: N-NITROSOBIS(2-OXOPROPYL)AMINE, 60599-38-4, Dose [Inhibitor]: 0, 40 MG PELLET INSERTED IN THE INTERSCAPULAR REGION AND REPLACED EVERY 6 WK FOR LIFE BEGINNING WITH FIRST CARCINOGEN DO, Route [Inhibitor]: SUBCUTANEOUS, Species: RAT, Strain/Sex: MRC/MALE, Target Tissue: Type of Lesion: COLON: TUMOR, Dose [Carcinogen]: 10 MG/KG 1/WK FOR 20 WK, Promoter: NONE USED): 2/26 (8%), 0/29 (0%), 100%, not calculated
tumour outcome (control, treated, inhibition, significance) (Carcinogen: N-NITROSOBIS(2-OXOPROPYL)AMINE, 60599-38-4, Dose [Inhibitor]: 0, 40 MG PELLET INSERTED IN THE INTERSCAPULAR REGION AND REPLACED EVERY 6 WK FOR LIFE BEGINNING WITH FIRST CARCINOGEN DO, Route [Inhibitor]: SUBCUTANEOUS, Species: RAT, Strain/Sex: MRC/MALE, Target Tissue: Type of Lesion: RECTUM: TUMOR, Dose [Carcinogen]: 10 MG/KG 1/WK FOR 20 WK, Promoter: NONE USED): 9/26 (35%), 0/29 (0%), 100%, p<0.005
tumour outcome (control, treated, inhibition, significance) (Carcinogen: N-NITROSOBIS(2-OXOPROPYL)AMINE, 60599-38-4, Dose [Inhibitor]: 0, 40 MG PELLET INSERTED IN THE INTERSCAPULAR REGION AND REPLACED EVERY 6 WK FOR LIFE BEGINNING WITH FIRST CARCINOGEN DO, Route [Inhibitor]: SUBCUTANEOUS, Species: RAT, Strain/Sex: MRC/MALE, Target Tissue: Type of Lesion: RECTUM: TUMOR, Dose [Carcinogen]: 20 MG/KG 1/D FOR 3 D, Promoter: NONE USED): 6/13 (46%), 0/25 (0%), 100%, p<0.005

CC(C)=CCCC(C)CCO (stereo unspecified)
tumour outcome (control, treated, inhibition, significance) (Carcinogen: AZOXYMETHANE, 25843-45-2, Dose [Inhibitor]: 0, 5 MG/G IN DIET FOR 22 WK BEGINNING 3 D POST LAST CARCINOGEN DOSE (STUDY DURATION: 25 WK), Route [Inhibitor]: ORAL, Species: RAT, Strain/Sex: F344/MALE, Target Tissue: Type of Lesion: DUODENUM: ADENOCARCINOMA, Dose [Carcinogen]: 15 MG/KG BW 2/WK FOR 3 WK, Promoter: NONE USED): 50%, 26%, 48%, not significant
tumour outcome (control, treated, inhibition, significance) (Carcinogen: AZOXYMETHANE, 25843-45-2, Dose [Inhibitor]: 0, 5 MG/G IN DIET FOR 22 WK BEGINNING 3 D POST LAST CARCINOGEN DOSE (STUDY DURATION: 25 WK), Route [Inhibitor]: ORAL, Species: RAT, Strain/Sex: F344/MALE, Target Tissue: Type of Lesion: LARGE BOWEL: ADENOMATOUS POLYP, Dose [Carcinogen]: 15 MG/KG BW 2/WK FOR 3 WK, Promoter: NONE USED): 82%, 69%, 16%, not significant
